Laboratory results reported in patent publication US9808434B2, “Compound for treating cancer and diabetes” (CITY OF HOPE, priority 2011, dated 2017).

How the values were obtained:
SK-Mel-31 = assay: Colony formation assay, SK-Mel-31; type: cell-based, human; conditions: 5 μM
Method: (§1) Cell survival was evaluated using a standard colony-forming assay. In total, 1×10^5 cells/mL were incubated with COH-SR4 (1.5 μM or 5 μM) or elesclomol (5 μM) for 24 h, and aliquots of 50 or 100 μL were added to 60 mm size petri dishes, containing 4 mL culture medium. After 7 or 10 days, adherent colonies were fixed, stained with 0.5% methylene blue for 30 min and colonies were counted using the Innotech Alpha Imager HP (91).

NHDF = assay: Colony formation assay, NHDF; type: cell-based, human; conditions: FIG. 67B, 5 μM, vs untreated control
Method: as §1

[1] = test system: B16-F0 mouse and A2058 human melanoma cells; assay: Cell cycle FACS analysis, melanoma; type: cell-based; conditions: 18 h
Method: 2×10^5 cells were treated with COH-SR4 (0 μM, 5 μM or 10 μM) for 18 h at 37° C. After treatment, floating and adherent cells were collected, washed with PBS, and fixed with 70% ethanol. On the day of flow analysis, cell suspensions were centrifuged; counted and same numbers of cells were resuspended in 500 μL PBS in flow cytometry tubes. Cells were then incubated with 2.5 μL of RNase (stock 20 mg/mL) at 37° C. for 30 min after which they were treated with 10 μL of propidium iodide (stock 1 mg/mL) solution and then incubated at room temperature for 30 min in the dark. The stained cells were analyzed using the Beckman Coulter Cytomics FC500, Flow Cytometry Analyzer. Results were processed using CXP2.2 analysis software from Beckman Coulter.

[2] = COH-SR4 in mice serum, LC-MS/MS; type: in vivo, mouse; conditions: 4 mg/kg b.w. oral, alternate day, 8 weeks; blood within 2 h of final dose
Method: Mice (n=3 each for control and COH-SR4 treatment) were administered either 0.2 mL corn oil or 100 μg COH-SR4/0.2 mL corn oil/mice (4 mg/kg b.w.) by oral gavage on alternate days for 8 weeks. On the last day, the blood was collected within 2 h after final dosage. To 50 μL serum was added 0.5 μL 5 μg/μL 6D-SR4 standard in DMSO and 500 μL ethyl acetate. The samples were vortexed for 1 min and then spun down in a bench-top centrifuge for 2 min. Then 400 μL of the organic layer was collected, evaporated to dryness and redisolved in 500 μL methanol for analysis. After an initial concentration test, 50 μL were taken and diluted to 2 mL with methanol for final analysis. […]
COH-SR4 and 6D-SR4 were separated by HPLC using an Agilent Zorbax 0.5×150 mm C18, 5 μm column with a flow rate of 50 μL/min and a gradient of 65% B to 95% B over 4 min, then 2 min at 95% B and 1 min back to 65% B. Buffer A was 5 mM ammonium formate and buffer B was 5 mM ammonium formate in methanol. The elute from the column was introduced into an Agilent 6410 triple quadrupole tandem mass spectrometer by electrospray ionization (ESI) through a capillary maintained at 4 kV, using 6 L/min nitrogen nebulizing gas at 350° C. and 15 psi, fragmentor voltage=190 V. The following transitions were monitored in positive ion mode: 344>127.1 and 355>130.1 (collision energy=28 V), 344>161.9 and 355>164.9 (C.E.=20 V) for COH-SR4 and 6dSR4. […]

GST = assay: Total GST activity towards CDNB in H358 tumor tissue lysates; type: in vivo; conditions: n=3; control 0.32±0.03
Excerpt: The effect of COH-SR4 on signaling pathways of relevance to lung cancer progression was further analyzed by Western-blots of lysates from resected tumors (as described in Example 31). GAPDH was used as internal control. The bar diagrams (FIG. 82B) represent the fold change in the levels of proteins as compared to the controls as determined by densitometry. Dotted line represents no significant change observed when compared to the controls. The COH-SR4 treated groups had high levels of cleaved-PARP compared to the untreated controls, which reinforces the finding of apoptotic effect as observed in-vitro by TUNEL assay. Akt is a signaling protein that transduces the proliferative signals from upstream integrins and growth factor receptors. The COH-SR4 treatments increased the levels of PARP cleavage along with decreased levels of pAkt (S^473). […] In accordance with decreased levels of pAkt (S^473), the levels of pP70S6K were decreased in COH-SR4 treated groups compared to controls. […] COH-SR4 treated tumor tissue lysates were analyzed to test the impact of long term COH-SR4 treatment in vivo on GST expression and activity. […] The total GST activity as measured by activity towards CDNB as a substrate, in COH-SR4 treated tumor tissue lysates was lower compared to the controls [control, 0.32±0.03 U/mg protein; COH-SR4 treated, 0.21±0.05 U/mg protein; (n=3)]. […]

[3] = test system: HepG2 liver carcinoma cells; assay: Intracellular AMP:ATP ratio in HepG2; type: cell-based, human; conditions: 5 μM, 1 h
Method: ATP production from cells treated with test compounds were measured using the Luminescent ATP Detection Assay Kit. AMP, ATP and ADP were measured by UV-HPLC.
Total intracellular ATP production in cells treated with either 5 μM COH-SR4 or 5 μM FCCP was measured by bioluminescence assay and expressed as percentage of time-matched vehicle (DMSO) control (FIG. 84A). Intracellular AMP: ATP ratios increased in HepG2 liver carcinoma cells following 1 h treatment with either 5 μM COH-SR4 or 5 μM FCCP (FIG. 84B) and in liver of db/db mice treated with COH-SR4 (5 mg/kg B.W.) for 5 weeks (FIG. 84C). All data represented are mean±SEM, *P<0.05.

## O=C(Nc1cc(Cl)cc(Cl)c1)Nc1cc(Cl)cc(Cl)c1 [COH-SR4, 1,3-bis(3,5-dichlorophenyl) urea]
SK-Mel-31
  colony formation: 40±4%
NHDF
  colony forming potential: 97±3%
[1]
  cells accumulated in G2 phase (G2/M phase arrest): ~50%
[2]
  serum concentration: 342 ± 44 ng/mL
  serum concentration (equivalent): 1000 ± 220 nM
GST
  total GST activity towards CDNB: 0.21±0.05 U/mg protein
[3]
  intracellular AMP:ATP ratios: increased
